Measured values taken from patent US6534524B1, “Indazole compounds and pharmaceutical compositions for inhibiting protein kinases, and methods for their use” (Agouron Pharmaceuticals, Inc., priority 1999, dated 2003).

Tested on: human umbilical vein endothelial cells (HUVEC)
Test: HUVEC proliferation assay (VEGF-stimulated, MTT);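 as to % inhibition of the proliferation of HUVEC: relative to VEGF-stimulated control minus starvation-medium baseline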
Type: cell-based
Settings: + albumin; read-out: HUVEC + albumin IC50
Procedure: HUVEC Proliferation Assay
This assay determines the ability of a test compound to inhibit the growth factor-stimulated proliferation of human umbilical vein endothelial cells (“HUVEC”). HUVEC cells (passage 3-4, Clonetics, Corp.) were thawed into EGM2 culture medium (Clonetics Corp) in T75 flasks. Fresh EGM2 medium was added to the flasks 24 hours later. Four or five days later, cells were exposed to another culture medium (F12K medium supplemented with 10% fetal bovine serum (FBS), 60 μg/mL endothelial cell growth supplement (ECGS), and 0.1 mg/mL heparin). Exponentially-growing HUVEC cells were used in experiments thereafter. Ten to twelve thousand HUVEC cells were plated in 96-well dishes in 100 μl of rich, culture medium (described above). The cells were allowed to attach for 24 hours in this medium. The medium was then removed by aspiration and 105 μl of starvation media (F12K+1% FBS) was added to each well. After 24 hours, 15 μl of test agent dissolved in 1% DMSO in starvation medium or this vehicle alone was added into each treatment well; the final DMSO concentration was 0.1%. One hour later, 30 μl of VEGF (30 ng/mL) in starvation media was added to all wells except those containing untreated controls; the final VEGF concentration was 6 ng/mL. Cellular proliferation was quantified 72 hours later by MTT dye reduction, at which time cells were exposed for 4 hours MTT (Promega Corp.).
For screening compound library plates, one or two concentrations (one well per concentration) were employed, and the % inhibition was calculated by the following formula:
% inhibition=(control−test)÷(control−starvation)
% inhibition=(control-treated)/(control-starvation)×100

| Compound | IC50 |
| --- | --- |
| 6-(3-Benzamidobenzoyl)-3-E-[N-(4H-1,2,4-triazol-4-yl)iminomethyl]-1H-indazole [Example 42(e)] | 95 nM |

Same assay, conditions: Library I, Y = CO; nominal concentration of 10 nM; crude reaction mixtures

| Compound | % inhibition of the proliferation of HUVEC |
| --- | --- |
| NC(=O)C1CCN(C(=O)c2ccc3c(-c4nc5ccccc5[nH]4)n[nH]c3c2)CC1 | 44% |
| CC1CN(C(=O)c2ccc3c(-c4nc5ccccc5[nH]4)n[nH]c3c2)CC(C)O1 (stereo not drawn) | 21% |
| O=C(Nc1ncnc2[nH]cnc12)c1ccc2c(-c3nc4ccccc4[nH]3)n[nH]c2c1 [drawing 600] | 27% |

Same assay, conditions: Library I, Y = NH; nominal concentration of 10 nM; crude reaction mixtures

| Compound | % inhibition of the proliferation of HUVEC |
| --- | --- |
| NC(=O)C1CCN(C(=O)c2ccc3c(-c4nc5ccccc5[nH]4)n[nH]c3c2)CC1 | 5% |
| CC1CN(C(=O)c2ccc3c(-c4nc5ccccc5[nH]4)n[nH]c3c2)CC(C)O1 (stereo not drawn) | 7% |
| O=C(Nc1ncnc2[nH]cnc12)c1ccc2c(-c3nc4ccccc4[nH]3)n[nH]c2c1 [drawing 600] | −9% |

Same assay, conditions: Library I, Y = O; nominal concentration of 10 nM; crude reaction mixtures

| Compound | % inhibition of the proliferation of HUVEC |
| --- | --- |
| NC(=O)C1CCN(C(=O)c2ccc3c(-c4nc5ccccc5[nH]4)n[nH]c3c2)CC1 | 82% |
| CC1CN(C(=O)c2ccc3c(-c4nc5ccccc5[nH]4)n[nH]c3c2)CC(C)O1 (stereo not drawn) | 40% |
| O=C(Nc1ncnc2[nH]cnc12)c1ccc2c(-c3nc4ccccc4[nH]3)n[nH]c2c1 [drawing 600] | 52% |

Same assay, conditions: Library II, Y=S; 0.5 mM (column head; text: nominal 0.5 nM); crude reaction mixtures

| Compound | % inhibition of the proliferation of HUVEC |
| --- | --- |
| O=C(Nc1nncs1)c1ccccc1Sc1ccc2c(/C=C/c3ccccn3)n[nH]c2c1 | 44% |
| O=C(NCCS(=O)(=O)O)c1ccccc1Sc1ccc2c(/C=C/c3ccccn3)n[nH]c2c1 | 16% |
| Cc1cc(NC(=O)c2ccccc2Sc2ccc3c(/C=C/c4ccccn4)n[nH]c3c2)no1 | 28% |
| O=C1CSC(NC(=O)c2ccccc2Sc2ccc3c(/C=C/c4ccccn4)n[nH]c3c2)=N1 | 9% |
| CC1CCCC(NC(=O)c2ccccc2Sc2ccc3c(/C=C/c4ccccn4)n[nH]c3c2)C1 (stereo not drawn) | 69% |
| CC(C)C(CO)NC(=O)c1ccccc1Sc1ccc2c(/C=C/c3ccccn3)n[nH]c2c1 (stereo not drawn) | 21% |
| O=C(NCCCN1CCOCC1)c1ccccc1Sc1ccc2c(/C=C/c3ccccn3)n[nH]c2c1 | 5% |
| CC(=O)NCCNC(=O)c1ccccc1Sc1ccc2c(/C=C/c3ccccn3)n[nH]c2c1 | 15% |
| O=C(NNc1ccccn1)c1ccccc1Sc1ccc2c(/C=C/c3ccccn3)n[nH]c2c1 [drawing 760] | 32% |
| O=C(CNC(=O)c1ccccc1Sc1ccc2c(/C=C/c3ccccn3)n[nH]c2c1)NO | 5% |
| COCCNC(=O)c1ccccc1Sc1ccc2c(/C=C/c3ccccn3)n[nH]c2c1 | 21% |
| O=C(NCCCN(CCO)CCO)c1ccccc1Sc1ccc2c(/C=C/c3ccccn3)n[nH]c2c1 | 4% |
| O=C(NCC(F)(F)F)c1ccccc1Sc1ccc2c(/C=C/c3ccccn3)n[nH]c2c1 [drawing 626] | 34% |
| CSCCCNC(=O)c1ccccc1Sc1ccc2c(/C=C/c3ccccn3)n[nH]c2c1 | 44% |
| CN(C)c1ccc(CNC(=O)c2ccccc2Sc2ccc3c(/C=C/c4ccccn4)n[nH]c3c2)cc1 | 32% |
| COC(=O)c1cc(NC(=O)c2ccc3c(-c4nc5ccccc5[nH]4)n[nH]c3c2)ccc1O [drawing 610] | 39% |

Same assay, conditions: Library II, Y=S; 2 mM (column head; text: nominal 2 nM); crude reaction mixtures

| Compound | % inhibition of the proliferation of HUVEC |
| --- | --- |
| O=C(Nc1nncs1)c1ccccc1Sc1ccc2c(/C=C/c3ccccn3)n[nH]c2c1 | 28% |
| O=C(NCCS(=O)(=O)O)c1ccccc1Sc1ccc2c(/C=C/c3ccccn3)n[nH]c2c1 | 21% |
| Cc1cc(NC(=O)c2ccccc2Sc2ccc3c(/C=C/c4ccccn4)n[nH]c3c2)no1 | 14% |
| O=C1CSC(NC(=O)c2ccccc2Sc2ccc3c(/C=C/c4ccccn4)n[nH]c3c2)=N1 | −9% |
| CC1CCCC(NC(=O)c2ccccc2Sc2ccc3c(/C=C/c4ccccn4)n[nH]c3c2)C1 (stereo not drawn) | 59% |
| CC(C)C(CO)NC(=O)c1ccccc1Sc1ccc2c(/C=C/c3ccccn3)n[nH]c2c1 (stereo not drawn) | −5% |
| O=C(NCCCN1CCOCC1)c1ccccc1Sc1ccc2c(/C=C/c3ccccn3)n[nH]c2c1 | 14% |
| CC(=O)NCCNC(=O)c1ccccc1Sc1ccc2c(/C=C/c3ccccn3)n[nH]c2c1 | 27% |
| O=C(NNc1ccccn1)c1ccccc1Sc1ccc2c(/C=C/c3ccccn3)n[nH]c2c1 [drawing 760] | 92% |
| O=C(CNC(=O)c1ccccc1Sc1ccc2c(/C=C/c3ccccn3)n[nH]c2c1)NO | 9% |
| COCCNC(=O)c1ccccc1Sc1ccc2c(/C=C/c3ccccn3)n[nH]c2c1 | 60% |
| O=C(NCCCN(CCO)CCO)c1ccccc1Sc1ccc2c(/C=C/c3ccccn3)n[nH]c2c1 | 4% |
| O=C(NCC(F)(F)F)c1ccccc1Sc1ccc2c(/C=C/c3ccccn3)n[nH]c2c1 [drawing 626] | 61% |
| CSCCCNC(=O)c1ccccc1Sc1ccc2c(/C=C/c3ccccn3)n[nH]c2c1 | 100% |
| CN(C)c1ccc(CNC(=O)c2ccccc2Sc2ccc3c(/C=C/c4ccccn4)n[nH]c3c2)cc1 | 24% |
| COC(=O)c1cc(NC(=O)c2ccc3c(-c4nc5ccccc5[nH]4)n[nH]c3c2)ccc1O [drawing 610] | 15% |

Same assay, conditions: Library III; HUVEC proliferation; nominal concentration of 0.5 nM; crude reaction mixtures

| Compound | % inhibition |
| --- | --- |
| O=C(Nc1cccc(-c2ccccc2)c1)c1ccccc1Sc1ccc2c(/C=C/c3ccccn3)n[nH]c2c1 | −13% |
| Cc1cc(NC(=O)c2ccccc2Sc2ccc3c(/C=C/c4ccccn4)n[nH]c3c2)sn1 | 19% |
| O=C(Nc1ccc(C(F)(F)F)cc1)c1ccccc1Sc1ccc2c(/C=C/c3ccccn3)n[nH]c2c1 | −3% |
| CSc1nc(NC(=O)c2ccccc2Sc2ccc3c(/C=C/c4ccccn4)n[nH]c3c2)ns1 | −27% |
| O=C(NCCCCCO)c1ccccc1Sc1ccc2c(/C=C/c3ccccn3)n[nH]c2c1 | −2% |
| COC(=O)c1sccc1NC(=O)c1ccccc1Sc1ccc2c(/C=C/c3ccccn3)n[nH]c2c1 | 2% |
| O=C(NCC(F)(F)C(F)(F)F)c1ccccc1Sc1ccc2c(/C=C/c3ccccn3)n[nH]c2c1 | −22% |
| CC(C)c1cccc(C(C)C)c1NC(=O)c1ccccc1Sc1ccc2c(/C=C/c3ccccn3)n[nH]c2c1 | −7% |
| O=C(NCc1ccc(Cl)cc1)c1ccccc1Sc1ccc2c(/C=C/c3ccccn3)n[nH]c2c1 | 4% |
| O=C(Nc1ccc(CCO)cc1)c1ccccc1Sc1ccc2c(/C=C/c3ccccn3)n[nH]c2c1 | 10% |
| O=C(Nc1cc(Cl)ccc1Cl)c1ccccc1Sc1ccc2c(/C=C/c3ccccn3)n[nH]c2c1 | 15% |
| CC(CO)(CO)NC(=O)c1ccccc1Sc1ccc2c(/C=C/c3ccccn3)n[nH]c2c1 | −18% |
| CCc1cccc(CC)c1NC(=O)c1ccccc1Sc1ccc2c(/C=C/c3ccccn3)n[nH]c2c1 | −17% |
| O=C(NCCc1c[nH]c2ccccc12)c1ccccc1Sc1ccc2c(/C=C/c3ccccn3)n[nH]c2c1 | 18% |
| COC(OC)C(C)NC(=O)c1ccccc1Sc1ccc2c(/C=C/c3ccccn3)n[nH]c2c1 (stereo not drawn) | 0% |
| O=C(NC(CO)(CO)CO)c1ccccc1Sc1ccc2c(/C=C/c3ccccn3)n[nH]c2c1 | 14% |
| O=C(Nc1ccc(Cl)cn1)c1ccccc1Sc1ccc2c(/C=C/c3ccccn3)n[nH]c2c1 | −23% |
| O=C(Nc1nccc2ccccc12)c1ccccc1Sc1ccc2c(/C=C/c3ccccn3)n[nH]c2c1 | 4% |
| Cc1cc(O)ccc1NC(=O)c1ccccc1Sc1ccc2c(/C=C/c3ccccn3)n[nH]c2c1 | 12% |
| C=C(C)c1ccccc1NC(=O)c1ccccc1Sc1ccc2c(/C=C/c3ccccn3)n[nH]c2c1 | −41% |
| O=C(Nc1ccc(O)cc1Cl)c1ccccc1Sc1ccc2c(/C=C/c3ccccn3)n[nH]c2c1 | 7% |

| Compound | % inhibition |
| --- | --- |
| Cc1ccc(NC(=O)c2ccccc2Sc2ccc3c(/C=C/c4ccccn4)n[nH]c3c2)c(F)c1 | 2% |
| O=C(Nc1nnc(C2CC2)s1)c1ccccc1Sc1ccc2c(/C=C/c3ccccn3)n[nH]c2c1 | −20% |
| O=C(NCc1cccc(Cl)c1)c1ccccc1Sc1ccc2c(/C=C/c3ccccn3)n[nH]c2c1 | 24% |
| CC(=O)c1ccccc1NC(=O)c1ccccc1Sc1ccc2c(/C=C/c3ccccn3)n[nH]c2c1 | −7% |
| COc1ccc(NC(=O)c2ccccc2Sc2ccc3c(/C=C/c4ccccn4)n[nH]c3c2)cc1OC | 1% |
| O=C(Nc1ccccc1CCO)c1ccccc1Sc1ccc2c(/C=C/c3ccccn3)n[nH]c2c1 | 10% |
| COc1cc(NC(=O)c2ccccc2Sc2ccc3c(/C=C/c4ccccn4)n[nH]c3c2)cc(C(F)(F)F)c1 | 10% |
| O=C(NC1CC1)c1ccccc1Sc1ccc2c(/C=C/c3ccccn3)n[nH]c2c1 [drawing 1069] | 29% |
| O=C(Nc1ccncc1)c1ccccc1Sc1ccc2c(/C=C/c3ccccn3)n[nH]c2c1 | 6% |
| CCCCOCCCNC(=O)c1ccccc1Sc1ccc2c(/C=C/c3ccccn3)n[nH]c2c1 | −12% |
| O=C(NCc1ccc2c(c1)CCO2)c1ccccc1Sc1ccc2c(/C=C/c3ccccn3)n[nH]c2c1 | 14% |
| COC(=O)c1ccc(NC(=O)c2ccccc2Sc2ccc3c(/C=C/c4ccccn4)n[nH]c3c2)o1 | −1% |
| O=C(NC1CCSC1=O)c1ccccc1Sc1ccc2c(/C=C/c3ccccn3)n[nH]c2c1 (stereo not drawn) [drawing 1141] | −8% |
| CCCCN(CCCC)CCNC(=O)c1ccccc1Sc1ccc2c(/C=C/c3ccccn3)n[nH]c2c1 | 1% |
| Cc1cccc(O)c1NC(=O)c1ccccc1Sc1ccc2c(/C=C/c3ccccn3)n[nH]c2c1 | 11% |
| CCN(CC)c1ccc(NC(=O)c2ccccc2Sc2ccc3c(/C=C/c4ccccn4)n[nH]c3c2)cc1 | −9% |
| N/C(=N\O)c1[nH]cnc1NC(=O)c1ccccc1Sc1ccc2c(/C=C/c3ccccn3)n[nH]c2c1 | −15% |
| Cc1cc(C)nc(NC(=O)c2ccccc2Sc2ccc3c(/C=C/c4ccccn4)n[nH]c3c2)c1 | 3% |
| COc1ccc(NC(=O)c2ccccc2Sc2ccc3c(/C=C/c4ccccn4)n[nH]c3c2)c(C)c1 | 0% |
| O=C(NCCc1cccc(F)c1)c1ccccc1Sc1ccc2c(/C=C/c3ccccn3)n[nH]c2c1 | 4% |

Same assay, conditions: Library III; HUVEC proliferation; nominal concentration of 0.5 nM; crude reaction mixtures; 0.0005 µM

| Compound | % inhibition |
| --- | --- |
| CC(C)CC(CO)NC(=O)c1ccccc1Sc1ccc2c(C=Cc3ccccn3)n[nH]c2c1 (stereo not drawn) [drawing 1015] | −13% |
